Usually IC50 stands for the point on the concentration scale where inhibition reaches its midpoint. A higher IC50 goes with lower potency.

The subject of data set [1] is type II alveolar cells. Type of data set: cell-based, rat. Conditions: for Area (of cellular structures): cells plated on 1.8 mg/cm^2 gelled protein substrate, 5 d, mean ± SD, alveoli defined as > 20 × 10^3 um^2; for Area: Table II, laminin A chain synthetic peptide preincubated with cells before plating on BMS, None = 108 ± 23; for Inhibition of alveolar formation by soluble laminin fragment or peptide: preincubated with cells prior to plating on BMS, day five; for Alveolar formation on substrate: cells plated on equal milligram amounts of gelled substrate. An excerpt: Type II alveolar cells were isolated from 250-g Sprague Dawley rats (Hilltop Laboratory Animals, Inc.) according to the method of Rannels (Rannels and Rannels, 1988). Briefly, an initial cardiac perfusion with 0.9% saline was followed by instillation of the airways with 0.1% elastase (Calbiochem Corp., La Jolla, Calif.) in Joklik's modified minimal medium (JMEM) containing 0.05% BaSO4. Elastase was inactivated by instillation of JMEM containing soybean trypsin inhibitor (0.08%; Sigma Chemical Co., St. Louis, Mo.), DNase (0.08%. Sigman Chemical Co.), and 50% newborn calf serum (GIBCO BRL, Gaithersburg, Md.). Lung tissue was minced, vortexed, and filtered through 160-μm nylon mesh (Tetko, Elmsford, N.Y.). Released cells were centrifuged for 10 min at 500 g, resuspended in JMEM containing 0.08% DNAse, and layered on a Percoll (Pharmacia Fine Chemicals) discontinuous density gradient. After centrifugation for 20 min (4° C.) , cells were collected at the 1.04/1.08 interface, washed in JMEM, brought up in DME containing 10% fetal bovine serum (FBS) (GIBCO BRL), and incubated for 30 min (37° C.) in 75-cm^2 tissue culture flasks to eliminate contaminating macrophage cells which rapidly adhere to the plastic surface. The resultant type II alveolar cell preparations were 95% viable as determined by trypan blue exclusion; purity was 93% as assessed by the presence of lamellar bodies visible with Hoffman optics at a magnification of 40 and by tannic acid staining. Analysis of total cellular DNA/well on each day of an experiment was performed in triplicate on trypsin/disease released cells using a DNA fluorometry assay (Labarca and Paigen, 1980).
Freshly isolated type II alveolar cells were plated in 96-well plates at 20×10^3 cells/well on 500 μg/well (1.8 mg/cm^2) of gelled BMS of collagen I. Cells were cultured over 5 d with on media change performed on day three. Alveolar formation was analyzed at 24-h intervals over 5 d from photographic negatives (4×original magnification of central portion of each well) of triplicate wells. Images from negatives were transferred via video camera to an Image I imaging system (Universal Imaging Corp., West Chester, Pa.) and viewed on a color video monitor. The area of cellular structures was then determined and expressed as the mean±standard deviation. In some cases two size categories were distinguished: (a) single cells (200-300 μm^2) and (b) model alveoli (20×10^3 μm^2 or greater) with data expressed as percent of area occupied by each category.
(§1) In alveolar inhibition studies, antibodies (50 μg/well) were incubated with gelled BMS (500 μg/well) in wells of 96-well plates for 60 min at 37° C. Unbound antibody was removed by three DME washes (200 μl/well) and then freshly isolated cells were added. Dose-response assays were performed on all antibodies. Laminin fragments and synthetic peptides (micromolar amount indicated on figures) were preincubated with freshly isolated type II alveolar cells in suspension for 30 min at 37° C. with gentle agitation every 5 min; cells together with fragment or peptide were then plated on BMS. Cell viability in the presence of each antibody, fragment, or synthetic peptide was accessed using the MTT (3-[4,5-dimethylthiazol-2-yl]-2,5-diphenyl tetrazolium bromide) assay (Chemicon International, Inc. Temecula, Calif.).

Data set [2] concerns HT1080 human fibrosarcoma cells. Put plainly: Cell adhesion studies, HT1080 cells on coated plates (Example 1). It counts as cell-based. As to the method:
(§2) Plates coated overnight (4° C.) with equimolar amounts of laminin, laminin fragment, or synthetic peptide were blocked with 1% BSA (Sigma Chemical Co.) for 4 h (4° C.) and cells were subsequently added (2×10^4 /well) in serum-free media and incubated for 60 min (37° C.) according to the method of Aumailey and Timpl (1986). Inhibition studies were carried out by preincubating cells for 30 min (37°; gentle agitation every 5 min) with equimolar amounts of soluble fragment or peptide. Cells, together with soluble inhibitor, were then added to the coated plates. After a 60-min (37° C.) incubation, plates were washed twice with PBX, fixed with 1% glutarldehyde (Electron Microscopy Service Laboratories, Westmount, N.J.), PBS, washed, stained with 0.1% crystal violet (Serra Biochemicals, Hauppauge, N.Y.), washed twice with distilled water, solubilized in 0.5% Triton X-100 (Sigma Chemical Co.), and read on an ELISA plate reader (Molecular Devices Corp., Menio Park, Calif.) equipped with a 595-nm filter.

For data set [3], the system named is type II alveolar cells. The data set is described as follows: Cell adhesion studies, type II alveolar cells on coated plates (Example 1). It counts as cell-based, rat. Conditions: coating 100 μM. As to the method: as §2
For data set [4], the system named is type II alveolar cells. It counts as cell-based, rat. As to the method: as §1

Peptide text beside a SMILES is read from it.

Collagen IV: Mouse collagen IV: the “Area (of cellular structures)” value in data set [1] is 0.4 ± 0.2 μm^2 × 10^3.

On to “AASIKVAVSADR [peptide from mouse laminin A chain, antigen of ab-A[IK], reference compound]”, for which, in data set [1], the Area came to 98 ± 22 μm^2 × 10^3 and the “Inhibition of alveolar formation by soluble laminin fragment or peptide” value (shortened to “Inhibition of alveolar formation”) is given as “no effect on alveolar formation”.

In the case of “RGDS [functionally identical to RGDN, P1 fragment cell adhesion site, reference compound]”, in data set [1], the Area came to 105 ± 24 μm^2 × 10^3 and the “Inhibition of alveolar formation” value is “no effect on alveolar formation”. In the case of “collagen I: Rat tail collagen I, negative control substrate”, the “Alveolar formation on substrate” value in data set [1] is given as “completely ineffective”. As for “Laminin: Mouse laminin, large cross-shaped cell adhesive heterotrimer”, in data set [2] (HT1080 cells, substrate coated at 35 μM, mean ± SD), the Percent cell attachment is listed as 80 ± 0.02%. For the same molecule, in data set [1], the “Area (of cellular structures)” value was found to be 35 ± 3 μm^2 × 10^3 and the “Alveolar formation on substrate” value was “alveoli formed only on laminin”. Moreover, the “Adhesion of type II alveolar cells to coated substrate” value in data set [3] was “Adhesion”. Take “WHSIYITR [middle 8-mer of SN-peptide from trypsin digestion]”: the “Inhibition of alveolar formation” value in data set [1] was “partial”. For the molecule `CC[C@H](C)[C@H](NC(=O)[C@H](CO)NC(=O)[C@H](Cc1c[nH]cn1)NC(=O)[C@H](Cc1c[nH]c2ccccc12)NC(=O)[C@H](CCCNC(=N)N)NC(=O)[C@H](CC(N)=O)NC(=O)[C@H](CC(N)=O)NC(=O)[C@H](CC(N)=O)NC(=O)[C@@H](NC(=O)[C@@H](N)CO)[C@@H](C)CC)C(=O)N[C@@H](Cc1ccc(O)cc1)C(=O)N[C@H](C(=O)N[C@H](C(=O)N[C@@H](CCCNC(=N)N)C(=O)N[C@@H](Cc1ccccc1)C(=O)NCC(=O)N[C@@H](CC(N)=O)C(=O)N[C@@H](CCSC)C(=O)NCC(=O)N[C@@H](CO)C(=O)O)[C@@H](C)O)[C@@H](C)CC` [SN-peptide] (H-SINNNRWHSIYITRFGNMGS-OH), the Cell viability in data set [4] is reported as 97±1%. The same molecule yielded an IC50 in data set [1] of 50 µM.

In turn, `CC[C@H](C)[C@H](NC(=O)[C@@H](N)CO)C(=O)N[C@@H](CC(N)=O)C(=O)N[C@@H](CC(N)=O)C(=O)N[C@@H](CC(N)=O)C(=O)N[C@@H](CCCNC(=N)N)C(=O)O` [SINNNR] (H-SINNNR-OH) had an IC50 in data set [1] of 68 µM.

In the case of `O=C(O)CN(CCN(CC(=O)O)CC(=O)O)CC(=O)O` [EDTA, reference compound], the “Inhibition of HT1080 cell adhesion to SN-peptide” value in data set [2] (cells preincubated with inhibitor, coating and inhibitor 100 μM, EDTA 2 mM) is listed as “inhibited”. In the case of “FGNMGS [carboxy-terminal 6-mer of SN-peptide from trypsin digestion]”, in data set [1], the “Inhibition of alveolar formation” value was “minimal”. Turning to “AASVVIAKSADR [scrambled IKVAV control peptide, reference compound]”, in data set [1], the Area was 100 ± 18 μm^2 × 10^3 and the “Inhibition of alveolar formation” value is listed as “no effect on alveolar formation”.

Turning to “KQNCLSSRASFRGCVRNLRLSR [reference compound]”, in data set [1], the Area came out at 110 ± 19 μm^2 × 10^3 and the “Inhibition of alveolar formation” value is listed as “no effect on alveolar formation”.

B1: Entactin: Mouse entactin purchased from Upstate Biotechnology (protein, UniProt P10493 29-1245, looked up)
Nidogen-1: LNRQELFPFGPGQGDLELEAGDDVVSPSLELIGELSFYDRTDITSVYVTTNGIIAMSEPPATEYHPGTFPPSFGSVAPFLADLDTTDGLGNVYYREDLSPFIIQMAAEYVQRGFPEVSFQPTSVVVVTWESVAPYGGPSSSPAEEGKRNTFQAVLASSNSSSYAIFLYPEDGLQFFTTFSKKDESQVPAVVGFSKGLVGFLWKSNGAYNIFANDRESIENLAKSSNAGHQGVWVFEIGSPATAKGVVSADVNLDLDDDGADYEDEDYDLVTSHLGLEDVATPSPSHSPRRGYPDPHNVPRILSPGYEATERPRGVPTERTRSFQLPAERFPQHHPQVIDVDEVEETGVVFSYNTGSQQTCANNRHQCSVHAECRDYATGFCCRCVANYTGNGRQCVAEGSPQRVNGKVKGRIFVGSSQVPVVFENTDLHSYVVMNHGRSYTAISTIPETVGYSLLPLAPIGGIIGWMFAVEQDGFKNGFSITGGEFTRQAEVTFLGHPGKLVLKQQFSGIDEHGHLTISTELEGRVPQIPYGASVHIEPYTELYHYSSSVITSSSTREYTVMEPDQDGAAPSHTHIYQWRQTITFQECAHDDARPALPSTQQLSVDSVFVLYNKEERILRYALSNSIGPVRDGSPDALQNPCYIGTHGCDSNAACRPGPGTQFTCECSIGFRGDGQTCYDIDECSEQPSRCGNHAVCNNLPGTFRCECVEGYHFSDRGTCVAAEDQRPINYCETGLHNCDIPQRAQCIYMGGSSYTCSCLPGFSGDGRACRDVDECQHSRCHPDAFCYNTPGSFTCQCKPGYQGDGFRCMPGEVSKTRCQLEREHILGAAGGADAQRPTLQGMFVPQCDEYGHYVPTQCHHSTGYCWCVDRDGRELEGSRTPPGMRPPCLSTVAPPIHQGPVVPTAVIPLPPGTHLLFAQTGKIERLPLERNTMKKTEAKAFLHIPAKVIIGLAFDCVDKVVYWTDISEPSIGRASLHGGEPTTIIRQDLGSPEGIALDHLGRTIFWTDSQLDRIEVAKMDGTQRRVLFDTGLVNPRGIVTDPVRGNLYWTDWNRDNPKIETSHMDGTNRRILAQDNLGLPNGLTFDAFSSQLCWVDAGTHRAECLNPAQPGRRKVLEGLQYPFAVTSYGKNLYYTDWKTNSVIAMDLAISKEMDTFHPHKQTRLYGITIALSQCPQGHNYCSVNNGGCTHLCLPTPGSRTCRCPDNTLGVDCIERK
As for B1, the “Area (of cellular structures)” value in data set [1] worked out at 1 ± 0.5 μm^2 × 10^3.

These data come from patent publication US5696229A, “Polypeptide with laminin cell adhesion and morphogenesis activity” (The University of Virginia Patent Foundation, priority 1995, dated 1997).
